In patent US20080318970A1, “Treatment of Infectious Diseases” (priority 2004, published 2008):
Read-outs that look alike come from different tables or passages of the source.

Tests used:
E. coli, LN 3164 [1] = test: MIC susceptibility test, microdilution broth method (NCCLS), chemosensitising compound alone; format: cell-based; details: 16 h
Method: Bacteria were sub-cultured on Mueller-Hinton agar plates and incubated over night at 37° C. Pre-warmed Mueller-Hinton broth was inoculated with colonies from the plate and incubated for approximately three hours to achieve a log phase culture. The log phase culture of bacteria was diluted with fresh pre-warmed medium and adjusted to a defined Optical Density (OD) at 600 nm in order to give a final assay concentration of 1×10^4 bacteria/ml medium.
Cell growth was tested using the MIC susceptibility tests by use of the microdilution broth method in accordance to the NCCLS Guidelines (NCCLS Guidelines, Methods for Dilution Antimicrobial Susceptibility Tests for Bacteria That Grow Aerobically; Approved Standard, Sixth Edition, Volume 23; Number 2). A 100% Mueller-Hinton broth and a bacterial concentration of 1×10^4/ml were used.
A log phase culture of bacteria was diluted with fresh pre-warmed medium and adjusted to a defined OD at 600 nm in order to give a final concentration of 1×10^4 bacteria/ml medium in each well. Each chemosensitising compound was added to the bacterial culture in the wells in two-fold dilutions in order to give final concentrations ranging from 8 to 500 μg/ml. Trays were incubated at 37° C. for 16 h. Minimal Inhibitory Concentration, (MIC) is defined as the lowest inhibitory concentration showing no visible growth according to the NCCLS Guidelines.

E. coli, LN 3164 [2] = test: Effect of chemosensitising compounds on DR (DR ratio) with ciprofloxacin, microtiter assay; format: cell-based; details: for DR ratio: MIC ciprofloxacin alone / MIC ciprofloxacin + chemosensitising compound at ¼ of its MIC
Method: The effects of the chemosensitising compounds on DR were studied by the microtiter assay described above by exposing cells to 0-64 μg/ml anti-infective drug in the absence or presence of chemosensitising compound. Each experiment was repeated in tripleduplicate. MIC values represent the mean values of two separate experiments.
A log phase culture of bacteria was diluted with fresh pre-warmed medium and adjusted to a defined OD at 600 nm in order to give a final concentration of 1×10^4 bacteria/ml medium in each well. […] Anti-infective agent was added to the bacterial culture in the wells in two-fold dilutions in order to give final concentrations ranging from 0 to 64 μg/ml. Trays were incubated at 37° C. for 16 h. The DR ratio was defined as the ratio between the MIC value for anti-infective agent alone divided by the MIC for the anti-infective agent in the presence of the chemosensitising compound. This ratio represents the increase in apparent potency of the anti-infective agent caused by the chemosensitising compound, and may be expressed as
DR ratio=(MICanti-infective agent)/(MICanti-infective agent+chemosensitising compound)

[3] = tested on: Fluconazole Resistant Candida albicans; test: Checkerboard combination study on fungals, broth microdilution (NCCLS M27-A); format: cell-based; details: Candida albicans
Method: The synergistic effect of Trans-clopenthixol was studied by checkerboard combination studies exposing cells to 0-256 μg/ml anti-infective agent in the absence or presence of trans-clopenthixol (0 to 8 μg/ml in two-fold dilutions). Each experiment was repeated in tripleduplicate. MIC values represent the mean values of two separate experiments.
Clinical Isolate of a Fluconazole Resistant Candida albicans from a Patient with candidemia.
The isolates were subcultured for 24 h on Sabouraud glucose agar before susceptibility testing.
Broth microdilution tests were performed according to NCCLS document M27-A (Ref: National Committee for Clinical Laboratory Standards. (1997). Reference Method for Broth Dilution Antifungal Susceptibility Testing of Yeasts: Approved Standard M27-A. NCCLS, Wayne, Pa.)
Microtitre plates were read spectrophotometrically at 530 nm, after mixing the wells by pipetting to resuspend yeast sediments.
The Fractional Inhibitory Concentration (FIC) was calculated for the anti-infective agent alone and in combination with trans-clopenthixol. The following formulae were used to calculate the FIC index:
(§1) FIC=FICchemosensitising compound+FICanti-infective agent
(§2) FICchemosensitising compound=(MICchemosensitising compound+anti-infective agent)/(MICchemosensitising compound)
FICanti-infective agent=(MICanti-infective agent+chemosensitising compound/(MICanti-infective agent)
(§3) Synergy was defined as a FIC index of <0.5.

E. faecalis F84 = test: Checkerboard combination study (FIC index); format: cell-based, Enterococcus faecalis; details: for FIC index: MDR isolate
Method: Enterococcus faecalis, F84. A multidrug resistant clinical isolate.
(§4) The synergistic effect was studied by checkerboard combination studies exposing cells to 0-64 μg/ml anti-infective agent in the absence or presence of trans-flupenthixol, cis-flupenthixol or trans-clopenthixol. Each experiment was repeated in tripleduplicate. MIC values represent the mean values of two separate experiments,
A log phase culture of bacteria was diluted with fresh pre-warmed medium and adjusted to a defined OD at 600 nm in order to give a final concentration of 1×10^4 bacteria/ml medium in each well. […] Anti-infective agent was added to the bacterial culture in the wells in two-fold dilutions in order to give final concentrations ranging from 0 to 64 μg/ml Trays were incubated at 37° C. for 16 h. Wells were assessed visually for growth. The Fractional Inhibitory Concentration (FIC) was calculated for each anti-infective agent alone and in combination with trans-flupenthixol, cis-flupenthixol or trans-clopenthixol. The following formulae were used to calculate the FIC index:
as §1, §2
(§5) FICanti-infective agent=(MICanti-infective agent+chemosensitising compound/(MICanti-Infective agent)
as §3

E. faecalis F86 = test: Checkerboard combination study (FIC index); format: cell-based, Enterococcus faecalis; details: anti-infective agent Dicloxacillin; isolate susceptible (S)
Method: Enterococcus faecalis, F86. Susceptible clinical isolate. No development of resistance.
as §4
(§6) A log phase culture of bacteria was diluted with fresh pre-warmed medium and adjusted to a defined OD at 600 nm in order to give a final concentration of 1×10^4 bacteria/ml medium in each well. Each chemosensitising compound was added to the bacterial culture in the wells in two-fold dilutions in order to give final concentrations ranging from 0 to 8 μg/ml. Anti-infective agent was added to the bacterial culture in the wells in two-fold dilutions in order to give final concentrations ranging from 0 to 64 μg/ml Trays were incubated at 37° C. for 16 h. Wells were assessed visually for growth. The Fractional Inhibitory Concentration (FIC) was calculated for each anti-infective agent alone and in combination with trans-flupenthixol, cis-flupenthixol or trans-clopenthixol. The following formulae were used to calculate the FIC index:
as §1, §2, §5, §3

S. aureus E45 = test: Checkerboard combination study (FIC index); format: cell-based, Staphylococcus aureus; details: isolate resistant (R)
Method: Staphylococcus aureus E45 MRSA. Clinical isolate. Resistant to methicillin. Susceptible to teicoplanin chloramphenicol, fosfomycin, netilmicin and vancomycin.
as §4, §6, §1, §2, §5, §3

S. aureus O11 = test: Checkerboard combination study (FIC index); format: cell-based, Staphylococcus aureus; details: anti-infective agent Dicloxacillin; isolate susceptible (S)
Method: Staphylococcus aureus O11. Clinical isolate resistant to penicillin. Susceptible to methicillin, tetracycline, beta-lactams, fluoroquinolones, chloramphenicol and aminoglycosides.
as §4, §6, §1, §2, §5, §3

E. coli LN 3164 = test: Checkerboard combination study (FIC index); format: cell-based; details: MDR isolate
Method: E. coli, LN 3164. Acr AB-ToIC MDR in vitro-selected mutant. Resistant to tetracycline, beta-lactams, fluoroquinolones, chloramphenicol and aminoglycosides.
as §4, §6, §1, §2, §5, §3

E. coli 331ME = test: Checkerboard combination study (FIC index); format: cell-based; details: MDR isolate
Method: E. coli 331 ME. In vivo-selected multidrug resistant clinical isolates of E. coli. Strains were isolated from a patient with severe cystitis/urosepsis. Resistant to tetracycline, beta-lactams, fluoroquinolones, chloramphenicol and aminoglycosides.
as §4, §6, §1, §2, §5, §3

P. aeruginosa 432b = test: Checkerboard combination study (FIC index); format: cell-based; details: isolate resistant (R)
Method: P. aeruginosa 432b. Clinical multidrug resistant isolate. Resistant to tetracycline, beta-lactams, fluoroquinolones, and aminoglycosides. Beta-lactamase producing, changes in Penicillin Binding Proteins and changes in Outer Membrane Proteins.
as §4, §6, §1, §2, §5, §3

[4] = clinical trial versus placebo, Johnstone et al.; cited from earlier work
[5] = anti-infective agent Dicloxacillin
[6] = anti-infective agent Ciprofloxacin
[7] = anti-infective agent Gentamicin
[8] = anti-infective agent Piperacillin

SMILES	MIC (E. coli, LN 3164 [1]; 37° C.)	DR ratio (E. coli, LN 3164 [2]; E. coli LN 3164)	also measured
CN(C)CCCN1c2ccccc2Sc2cccc(Cl)c21 [1-chlorpromazine]	64 µg/mL	2	–
CN(C)CCN1c2ccccc2Sc2ccc(Cl)cc21 [2-chloro-10-(2-dimethylaminoethyl)phenothiazine]	–	2	MIC (E. coli, LN 3164 [1]; Escherichia coli, LN3164, 37° C., read-out: MIC): 64 µg/mL
CN(C)CCCN1c2cc(Cl)ccc2Sc2cc(O)c(O)cc21 [7,8-dihydroxy-chlorpromazine, 7,8-dihydroxychlorpromazine]	125 µg/mL	0.5	–
CN(C)CCCN1c2ccc(O)cc2Sc2ccc(Cl)cc21 [7-hydroxy-chlorpromazine, 7-hydroxychlorpromazine]	125 µg/mL	1	–
CNCCCN1c2ccccc2Sc2ccc(Cl)cc21 [Desmethyl-chlorpromazine, desmethylchlorpromazine]	32 µg/mL	2	–
OC(Cn1cncn1)(Cn1cncn1)c1ccc(F)cc1F [Fluconazole, reference compound]	–	–	MIC [3]: 128 µg/mL
OCCN1CCN(CCCN2c3ccccc3Sc3ccc(C(F)(F)F)cc32)CC1 [Fluphenazine, fluphenazine]	32 µg/mL	8	–
OCCN1CCN(CCCN2c3ccccc3Sc3ccc(Cl)cc32)CC1 [Perphenazine, perphenazine]	125 µg/mL	4	–
CN1CCN(CCCN2c3ccccc3Sc3ccc(Cl)cc32)CC1 [Prochlorperazine, prochlorperazine]	64 µg/mL	4	–
CN(C)CCCN1c2ccccc2Sc2ccccc21 [Promazine, promazine]	64 µg/mL	2	sensitised drug resistant cells to ciprofloxacin by (E. coli, LN 3164 [2]; E. coli LN 3164, ciprofloxacin): 100%
CC(CN1c2ccccc2Sc2ccccc21)N(C)C (stereo not shown) [Promethazine, promethazine]	64 µg/mL	8	–
CSc1ccc2c(c1)N(CCCN(C)C)c1ccccc1S2 [Thiomethylpromazine, thiomethylpromazine]	32 µg/mL	4	–
CN1CCN(CCCN2c3ccccc3Sc3ccc(C(F)(F)F)cc32)CC1 [Trifluoperazine, trifluoperazine]	16 µg/mL	16	–
CN(C)CCCN1c2ccccc2Sc2ccc(C(F)(F)F)cc21 [Trifluopromazine, trifluopromazine]	32 µg/mL	8	–
CN(C)CCCN1c2ccccc2[S+]([O-])c2ccc(Cl)cc21 (stereo not shown) [chlorpromazine sulfoxide]	–	–	activity against drug resistance (in words) (E. coli, LN 3164 [2]; E. coli LN 3164, ciprofloxacin): same activity against drug resistance as did chlorpromazine
CN(C)CCCN1c2ccccc2Sc2ccc(Cl)cc21 [chlorpromazine]	32 µg/mL	4	sensitised drug resistant cells to ciprofloxacin by (E. coli, LN 3164 [2]; E. coli LN 3164, ciprofloxacin): 220%; increase in anti-DR activity, tertiary versus secondary amine (E. coli, LN 3164 [2]; chlorpromazine versus desmethylchlorpromazine): 1.6 fold
OCCN1CCN(CC/C=C2/c3ccccc3Sc3ccc(C(F)(F)F)cc32)CC1 [cis-flupenthixol, reference compound]	32 µg/mL	32	FIC index (E. faecalis F84; [5]): 0.13; FIC index (E. faecalis F84; anti-infective agent Vanomycin): 0.25; FIC index (E. faecalis F86): 0.50; FIC index (S. aureus E45; [5]): 0.25; FIC index (S. aureus E45; anti-infective agent Fucidic acid): 0.26; FIC index (S. aureus O11): 0.50; FIC index (E. coli LN 3164; [6]): 0.25; FIC index (E. coli LN 3164; [7]): 0.25; FIC index (E. coli LN 3164; [8]): 0.25; FIC index (E. coli 331ME; [6]): 0.013; FIC index (E. coli 331ME; [7]): 0.06; FIC index (E. coli 331ME; [8]): 0.25; FIC index (P. aeruginosa 432b; [6]): 0.06; FIC index (P. aeruginosa 432b; [7]): 0.13; FIC index (P. aeruginosa 432b; [8]): 0.25; anti-psychotic effect (in words) [4]: potent neuroleptic
CN[C@H](CC(C)C)C(=O)N[C@H]1C(=O)N[C@@H](CC(N)=O)C(=O)N[C@H]2C(=O)N[C@H]3C(=O)N[C@H](C(=O)N[C@H](C(=O)O)c4cc(O)cc(O)c4-c4cc3ccc4O)[C@H](O)c3ccc(c(Cl)c3)Oc3cc2cc(c3O[C@@H]2O[C@H](CO)[C@@H](O)[C@H](O)[C@H]2O[C@H]2C[C@](C)(N)[C@H](O)[C@H](C)O2)Oc2ccc(cc2Cl)[C@H]1O [vancomycin, reference compound]	–	–	MIC value (E. faecalis F84; E. faecalis F84 cultivated in the presence of vancomycin at 4 μg/ml): 4 μ/ml
